The values below come from EP2574333B1, “N-acetylcysteine effervescent tablet and its therapeutical applications” (Friulchem SpA, priority 2011, dated 2013).

Structures are written as SMILES. Where two headings read alike, the source gives them in different places.

The test system of one data set is Glutathione (GSH). The note with it: cited from earlier work.
The conditions of data set [1]: mouse, cited from earlier work.
For data set [2] the following is noted: human, intravenous route; cited from earlier work.
The conditions of data set [3]: cited from earlier work.
Data set [4] in a line: Chronic toxicity in rats (NOEL). The note with it: oral route, 60 kg. Type of data set: in vivo.
The conditions of data set [5]: chronic toxicity in rats, for 12 months; cited from earlier work.
For data set [6] the following is noted: rats, intraperitoneal route; cited from earlier work.
For data set [7] the following is noted: 11,195 cases of suspected acetaminophen overdose reviewed; cited from earlier work.
For data set [8] the following is noted: in vivo, iv.

Consider `CC(=O)N[C@@H](CS)C(=O)O` [NAC, N-acetylcysteine], for which the “cysteine and GSH levels in plasma and lung” value in the data set on Glutathione (GSH) (NAC 600 mg once daily) is recorded as “increased transiently”. In addition, in the data set with Glutathione (GSH) (patients with COPD, 600 mg once daily), the “plasma concentration of Glutathione (GSH)” value is recorded as “unchanged”. Besides, in the data set on Glutathione (GSH) (patients with COPD, 600 mg three times daily), the “plasma GSH levels” value is recorded as “increased”. The “Toxic Dose Low (TDLO)” value was 408 to 450 mg/kg in data set [1] (intraperitoneal route), 300 mg/kg in data set [1] (oral route), 150 to 200 mg/kg in data set [2] and 150 to 200 mg/kg in data set [6]. For the same molecule, in data set [3] (after oral administration), the plasma half-life was 6.3 h. Also, the “time at which maximum plasma concentration is reached” value in data set [3] (after oral administration) was 2 to 3 h. Moreover, the “NAC in plasma or bronchoalveolar lavage fluid” value in [3] (following oral administration for 4-14 days) is “cannot be detected”. Further, the bioavailability entry in [3] (oral, unchanged molecule) is on record as “about 10%”. For the same molecule, the “1200 mg dose (20 mg/kg) referred to NOEL in rats” value in [4] is recorded as 50 times less. Further, in [5], the “no observed effect level (NOEL) dose” value is on record as “about 1000 mg/kg/day”. Besides, the “effectiveness of 72-hour oral regimen” value in [7] is on record as “as effective as the 24-hour regimen”. For the same molecule, the “1200 mg dose (20 mg/kg) referred to TDLO in human” value in data set [8] is listed as “about 10 times less”.
